Source: PMC8480782, “Efficient Dimerization Disruption of Leishmania infantum Trypanothione Reductase by Triazole-phenyl-thiazoles” (Journal of Medicinal Chemistry, 2021)
Where “and” joins values, the source holds several entries; their conditions need not be identical. Identical values can stand only once. Like-named read-outs stand apart in the source and are kept apart here.

Legend:
LiTryR dimer = target: T1, LiTryR dimer (Leishmania infantum, UniProt A4HSF7); assay: biochemical; settings: for IC50: 400 nM LiTryR, 16 h at 37 °C, read-out: IC50^dim, LiTryR monomer displacement (dimer quantitation ELISA); for inhibition at 20 µM: read-out: Percentage of inhibition (dimerization) observed at 20 μM, 20 μM compound
T1 construct: made in house; host or cells: E. coli BL21 (DE3) Rossetta (co-transformed with both plasmids)
T1 sequence (A4HSF7 1-491): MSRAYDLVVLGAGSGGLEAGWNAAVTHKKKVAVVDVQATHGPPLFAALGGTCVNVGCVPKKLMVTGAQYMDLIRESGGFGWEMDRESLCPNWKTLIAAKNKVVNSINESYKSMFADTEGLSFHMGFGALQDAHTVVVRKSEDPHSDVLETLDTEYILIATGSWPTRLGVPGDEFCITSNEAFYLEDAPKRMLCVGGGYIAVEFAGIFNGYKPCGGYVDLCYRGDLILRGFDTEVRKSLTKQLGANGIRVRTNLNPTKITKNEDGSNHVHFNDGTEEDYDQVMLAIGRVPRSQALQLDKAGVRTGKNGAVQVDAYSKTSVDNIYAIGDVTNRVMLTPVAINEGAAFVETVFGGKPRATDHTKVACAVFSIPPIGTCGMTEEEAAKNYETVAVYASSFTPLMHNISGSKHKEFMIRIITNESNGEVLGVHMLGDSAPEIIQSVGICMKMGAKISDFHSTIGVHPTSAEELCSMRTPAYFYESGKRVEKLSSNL

[1] = tested on: L. infantum axenic amastigotes; assay: Leishmanicidal activity on axenic amastigotes (PI exclusion, flow cytometry); assay type: cell-based, Leishmania infantum; settings: for SIa (ratio of EC50 against human cells to EC50 against amastigotes): HepG2 / axenic amastigotes; for EC50: Leishmania infantum, read-out: EC50 amastigotes
Method in brief: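 Leishmania infantum axenic amastigotes (MCAN/ES/89/IPZ229/1/89) were cultured at 37 °C in M199 medium, pH 5.4, with 10% heat-inactivated FCS, organic acids, MES, hemin and gentamicine. After compound exposure, parasites were gated by FSC/SSC and live versus dead cells were distinguished by propidium iodide exclusion using flow cytometry. EC50 values came from nonlinear regression in GraFit 6, with triplicates in at least three independent experiments.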

[2] = axenic amastigotes, 24 h at 37 °C

SMILES	IC50 (LiTryR dimer) [µM]	SIa (ratio of EC50 against human cells to EC50 against amastigotes) [1]	EC50 [1, 2] [µM]	inhibition at 20 µM (LiTryR dimer) [%]	EC50 ([1]; 24 h) [µM]	fold more potent than 12n, IC50^dim (LiTryR dimer; versus monomeric 12n) [fold]
NCCCCc1cn(-c2ccc(-c3nc(CCc4ccc5c(c4)CCO5)cs3)c(OCCN3CCNC3=O)c2)nn1.O=C(O)C(F)(F)F [12r]	10.7 ± 0.5	1.3	22.3 ± 0.6			
NCCCCc1cn(-c2ccc(-c3nc(CCc4ccc5ccccc5c4)cs3)c(OCCN3CCNC3=O)c2)nn1.O=C(O)C(F)(F)F [12b, 1-(2-(5-(4-(4-Ammoniumbutyl)-1H-1,2,3-triazol-1-yl)-2-(4-(2-(naphthalen-2-yl)ethyl)thiazol-2-yl)phenoxy)ethyl)imidazolidin-2-one 2,2,2-Trifluoroacetate]	7.1 ± 0.6	2.2	15.3 ± 1.7	73		
NCCCCc1cn(-c2ccc(-c3nc(CCc4ccc(-c5ccccc5)cc4)cs3)c(OCCN3CCNC3=O)c2)nn1.O=C(O)C(F)(F)F [12c, 1-(2-(2-(4-(2-([1,1′-Biphenyl]-4-yl)ethyl)thiazol-2-yl)-5-(4-(4-ammoniumbutyl)-1H-1,2,3-triazol-1-yl)phenoxy)ethyl)imidazolidin-2-one 2,2,2-Trifluoroacetate]	4.8 ± 0.6	3.7	11.6 ± 0.8	78		
NCCCCc1cn(-c2ccc(-c3nc(CCc4ccc5oc6ccccc6c5c4)cs3)c(OCCN3CCNC3=O)c2)nn1.O=C(O)C(F)(F)F [12s]	8.8 ± 0.2	ND/>1.1			68.8 ± 3.2	
NCCCCc1cn(-c2ccc(-c3nc(-c4cccc(-c5csc(-c6ccc(-n7cc(CCCCN)nn7)cc6OCCN6CCNC6=O)n5)c4)cs3)c(OCCN3CCNC3=O)c2)nn1.O=C(O)C(F)(F)F.O=C(O)C(F)(F)F [compound 22, 1,1′-((((1,3-Phenylenebis(thiazole-4,2-diyl))bis(5-(4-(4-ammoniobutyl)-1H-1,2,3-triazol-1-yl)-2,1-phenylene))bis(oxy))bis(ethane-2,1-diyl))bis(imidazolidin-2-one)bis(2,2,2-trifluoroacetate)]	8 ± 0.2	6.2	4.9 ± 0.2			4
NCCCc1cn(-c2ccc(-c3nc(CCc4ccc(-c5ccccc5)cc4)cs3)c(OCCN3CCNC3=O)c2)nn1.O=C(O)C(F)(F)F [12i]	10.8 ± 0.1	11.6	5.2 ± 0.3			
NCCCCc1cn(-c2ccc(-c3nc(-c4ccc(Oc5ccccc5)cc4)c(-c4ccccc4)s3)c(OCCN3CCNC3=O)c2)nn1.O=C(O)C(F)(F)F [19c, 1-(2-(5-(4-(4-Ammoniobutyl)-1H-1,2,3-triazol-1-yl)-2-(4-([4-phenyloxyphenyl]-1-yl)-5-phenylthiazol-2-yl)phenoxy)ethyl)imidazolidin-2-one 2,2,2-Trifluoroacetate]	9 ± 0.5	ND/≥3.3	22.6 ± 5.7			
NCCNCc1nccn1-c1ccc(-c2nc(CCc3ccc(-c4ccccc4)cc3)cs2)c(OCCN2CCNC2=O)c1 [compound 3, reference compound]		2.7 and 2.7/2.7	5.3 ± 0.2	~30		
NCCCCc1cn(-c2ccc(-c3nc(-c4ccccc4)c(-c4ccccc4)s3)c(OCCN3CCNC3=O)c2)nn1.O=C(O)C(F)(F)F [19a, 1-(2-(5-(4-(4-Ammoniobutyl)-1H-1,2,3-triazol-1-yl)-2-(4,5-diphenylthiazol-2-yl)phenoxy)ethyl)imidazolidin-2-one 2,2,2-Trifluoroacetate]	7.1 ± 1.7	1.7	15.6 ± 3			
NCCNCc1nccn1-c1ccc(-c2nc(CCc3ccc4ccccc4c3)cs2)c(OCCN2CCNC2=O)c1 [compound 2, reference compound]		2.1/2.1	12.8 ± 1.3	~30		
NCCCCc1cn(-c2ccc(-c3nc(-c4ccccc4)cs3)c(OCCN3CCNC3=O)c2)nn1.O=C(O)C(F)(F)F [12n]	29 ± 1.5		11.5 ± 0.3			
NCCCCc1cn(-c2ccc(-c3nc(CCc4ccc5c(c4)CCCN5)cs3)c(OCCN3CCNC3=O)c2)nn1.O=C(O)C(F)(F)F.O=C(O)C(F)(F)F [12q]	> 75	ND/1.6	27 ± 2.8			
